Values after ≈ are worked out from the molar mass of the structure shown. Each block holds one molecule with its values, some of them ahead of it.
Columns and labels:
[1] = molecular target: T1, aldose reductase from lens of SD rat (Rattus norvegicus, UniProt P07943); test: Inhibiting effect on aldose reductase (AR) activity; assay type: biochemical, Sprague-Dawley rat
T1 construct: natural aldose reductase from the eyeball of SD rat; from tissue; host or cells: Sprague-Dawley rat lens, homogenised; centrifuged and filtered supernatant
Protocol: Inhibiting effect of the extract of Homonoia riparia Lour. or the fractions (normal-hexane fraction, ethyl acetate fraction, normal-butanol fraction, and water fraction) thereof on aldose reductase activity was investigated in vitro. To obtain natural aldose reductase from the eyeball of SD rat (Sprague-Dawley rat, 250˜280 g) according to the method of Dufrane (1984), 135 mM Na, K-phosphate buffer (pH 7.0), and 10 mM 2-mercaptoethanol were mixed with the extracted lens, which was ground by using a homogenizer and a sonicater. After performing centrifugation at 14,000 rpm for 30 minutes, the supernatant was filtered by using 0.2 μm filter. All the procedures were performed at 4° C. Quantification was performed by Lowry method using BSA as a protein source of the enzyme. The mixture comprising 135 mM Na, K-phosphate buffer (pH 7.0), 100 mM lithium sulfate, 0.03 mM NADPH, 0.04 mM DL-glycealdehyde and 100 μg/ml enzyme mixture was dissolved in 0.1% DMSO, which was distributed to 50 μl of each sample diluted at different concentrations by 50 μl to make the total volume 1 ml, followed by culture for 10 minutes at 37° C. The experimental blank group was added with the mixture excluding 0.04 mM DL-glycealdehyde, and STD was treated with the sample including 135 mM Na, K-phosphate buffer (pH 7.0), 100 mM lithium sulfate, and 50 μl of NADP (0.2˜5 μM). The reaction was terminated by adding 0.3 ml of 0.5 N HCl. 1 ml of 6 M NaOH including 10 mM imidazole was added thereto, followed by reaction at 60° C. for 10 minutes. Then, the conversion of NADP to fluorescent product was measured. The examination was performed in triplicate. The effect was measured by using a spectrofluorophotometric detector (Bio-TEK, Synergy HT, USA) (Ex. 360 nm, Em. 460 nm) and presented as IC50. The extract of Homonoia riparia Lour. was prepared at the concentration of 1 μg/ml, 2.5 μg/ml, or 5 μg/ml. The normal-hexane fraction was prepared at the concentration of 2.5 μg/ml, 5 μg/ml, or 10 μg/ml. The ethyl acetate fraction was prepared at the concentration of 0.5 μg/ml, 1 μg/ml, or 2.5 μg/ml. The normal-butanol fraction was prepared at the concentration of 1 μg/ml, 2.5 μg/ml, or 5.0 μg/ml. The water fraction was prepared at the concentration of 2.5 μg/ml, 5 μg/ml, or 10 μg/ml. As the comparative control group, one of the excellent aldose reductase inhibitors, 3,3-tetramethyleneglutaric acid, was prepared at the concentration of 3.72 μg/ml, 4.66 μg/ml, or 5.59 μg/ml. Then, AR inhibiting effect of each sample was measured.

[2] = tested on: advanced glycation endproducts production (bovine serum albumin + fructose/glucose); test: Inhibiting effect on advanced glycation endproducts production (BSA with fructose/glucose, fluorescence); assay type: biochemical; conditions: 14 days at 37° C.
Protocol: Inhibiting effect of the extract of Homonoia riparia Lour. obtained in <Example 1> and each fraction thereof (normal-hexane, ethyl acetate, normal-butanol, or water fraction) obtained in <Example 2> on the advanced glycation endproducts production was investigated in vitro. Bovine serum albumin (BSA, Sigma, USA) was used as a protein source. BSA was added to 50 mM phosphate buffer (pH 7.4) to make the concentration 10 mg/ml. 0.2 M fructose/0.2 M glucose mixed solution was used as a sugar source. The fructose/glucose mixed solution was added to the BSA solution prepared above. The ethanol extract of Homonoia riparia Lour. was prepared at the concentration of 2.5 μg/ml, 5 μg/ml, or 10 μg/ml. The normal-hexane fraction was prepared at the concentration of 10 μg/ml, 25 μg/ml, or 50 μg/ml. The ethyl acetate fraction was prepared at the concentration of 1.25 μg/ml, 2.5 μg/ml, or 5 μg/ml. The normal-butanol fraction was prepared at the concentration of 1.25 μg/ml, 2.5 μg/ml, or 5 μg/ml. The water fraction was prepared at the concentration of 2.5 μg/ml, 5 μg/ml, or 10 μg/ml. All the compounds were dissolved in dimethylsulfoxide (DMSO), to which 15% tween 80 was added. At that time, the final DMSO content was 0.2%. The prepared extract or the fractions thereof were added to the BSA/sugar mixed solution, followed by culture for 14 days at 37° C. At that time, 0.02% sodium azide and antimycotics were added as an anti-bacterial agent and an anti-fungal agent. The BSA/sugar mixed solution was cultured, which was used as the control. The extract or the fractions thereof were used as the blank. In the meantime, aminoguanidine was used as the positive control, which was the index for the effect comparison. Particularly, aminoguanidine was dissolved in distilled water, followed by culture by the same manner as described above at the concentration of 18.5 μg/ml, 37 μg/ml, or 55.5 μg/ml for 14 days. All the culture solutions were prepared 4 of each to minimize error. After 14 days of culture, the amount of the advanced glycation endproducts was measured. The advanced glycation endproducts were fluorescent brown and had physiochemical property suitable for cross-linking, and also had ligands which could be recognized by cell membrane receptors. The amount of the advanced glycation endproducts having the said properties was measured by a microplate reader (Excitation: 350 nm, Emission: 450 nm) to evaluate the inhibiting effect on the advanced glycation endproducts production (Vinson, J. A. et al., J. Nutr. Biochem., 7: 659-663, 1996). Inhibition rate of the advanced glycation endproducts production was calculated by the following mathematical formula 1. […]

[3] = molecular target: AGE-BSA cross-linked to collagen (Bos taurus, UniProt P02769); test: In vitro AGE cross-linking breaking effect (AGE-BSA on collagen-coated plate, ELISA); assay type: biochemical; conditions: 4 hours at 37° C.; for AGE-BSA (%) remaining cross-linked: OD of treated well/untreated well x100
Protocol: 1.0 μg of AGE-BSA was distributed in a collagen-coated 96-well microtitre plate, followed by culture for 4 hours at 37° C. The plate was then washed with PBS containing 0.05% tween three times to eliminate non-conjugated AGE-BSA. Homonoia riparia Lour. The extract of Homonoia riparia Lour. or ALT-711 (4,5-dimethyl-3-(2-oxo-2-phenylethyl)-thiazolium chloride; Alteon Inc., Ramsey, N.J.) known as the AGEs cross-linking breaker was 2-fold diluted serially from the concentration of 1000 μg/ml to 1 μg/ml, which was added to each well (triplicate), followed by culture for 4 hours at 37° C. Upon completion of the culture, each well was washed with PBS containing 0.05% tween three times. To detect the AGE-BSA remaining as cross-linked to collagen, rabbit polyclonal anti-AGE-BSA antibody (MBL international, Woburn, Mass.) diluted at the ratio of 1:250 was distributed in each well, followed by culture for 1 hour at 37° C. One hour later, the plate was washed with PBS containing 0.05% tween three times, to which horseradish peroxidase-linked goat anti-rabbit antibody (Sigma, USA) was applied. Color development was induced by using 3,3′,5,5′-tetramethylbenzidine (TMB) as a substrate and OD450 was measured. Breaking % of AGE-BSA cross-linking was calculated by the following mathematical formula 2. AGE-BSA (%)=OD of sample treated well/OD of sample untreated well×100 [Mathematical Formula 2]

AGE-BSA cross-linked to collagen, sequence (P02769 25-607): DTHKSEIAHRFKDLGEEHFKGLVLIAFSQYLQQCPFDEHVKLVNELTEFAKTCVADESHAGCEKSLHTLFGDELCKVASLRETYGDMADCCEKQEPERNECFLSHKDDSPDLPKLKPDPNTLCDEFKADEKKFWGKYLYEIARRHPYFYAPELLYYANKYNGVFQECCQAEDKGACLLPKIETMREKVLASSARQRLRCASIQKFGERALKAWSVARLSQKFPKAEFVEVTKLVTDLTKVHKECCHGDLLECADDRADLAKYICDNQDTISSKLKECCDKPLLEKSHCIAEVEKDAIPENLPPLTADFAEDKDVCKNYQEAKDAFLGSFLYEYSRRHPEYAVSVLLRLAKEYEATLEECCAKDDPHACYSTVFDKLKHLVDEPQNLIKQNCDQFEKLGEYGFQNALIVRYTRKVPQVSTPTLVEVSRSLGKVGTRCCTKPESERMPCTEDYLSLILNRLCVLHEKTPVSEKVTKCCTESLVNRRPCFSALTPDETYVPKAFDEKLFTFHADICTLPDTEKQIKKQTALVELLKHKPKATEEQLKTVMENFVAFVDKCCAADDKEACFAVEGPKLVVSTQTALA

- inhibition at 3.72 µg/mL ([1]; conc. 3.72 μg/ml): 33 ± 4.36%
- inhibition at 4.66 µg/mL ([1]; conc. 4.66 μg/ml): 40.3 ± 1.36%
- inhibition at 5.59 µg/mL ([1]; conc. 5.59 μg/ml): 51.6 ± 0.78%
- IC50 ([1]; rat lens enzyme, read-out: Inhibiting effect (IC50) (μg/ml), aldose reductase (converted)): 29.1 µM
SMILES: O=C(O)CC1(CC(=O)O)CCCC1 [3,3-tetramethyleneglutaric acid]

- IC50 (μg/ml) 14th day, advanced glycation endproducts production [2]: 52.96 µg/mL (≈ 715 µM)
- Inhibition (%) 14th day ([2]; conc. 18.5 μg/ml): 15.50 ± 1.79%
- Inhibition (%) 14th day ([2]; conc. 37 μg/ml): 33.56 ± 0.51%
- Inhibition (%) 14th day ([2]; conc. 55.5 μg/ml): 52.81 ± 2.81%
SMILES: N=C(N)NN [Aminoguanidine]

- IC50 ([3]; read-out: IC50 (μg/ml), AGE-BSA cross-linking breaking): > 3730 µM
- AGE-BSA (%) remaining cross-linked ([3]; conc. 10 μg/ml): 100.18 ± 18.4%
- AGE-BSA (%) remaining cross-linked ([3]; conc. 50 μg/ml): 100.13 ± 4.42%
- AGE-BSA (%) remaining cross-linked ([3]; conc. 100 μg/ml): 100.21 ± 5.46%
- AGE-BSA (%) remaining cross-linked ([3]; conc. 1000 μg/ml): 51.77 ± 9.54%
SMILES: Cc1sc[n+](CC(=O)c2ccccc2)c1C.[Cl-] [ALT-711, 4,5-dimethyl-3-(2-oxo-2-phenylethyl)-thiazolium chloride]
